Results: PMC9179981 (International Journal of Molecular Sciences, 2022)
Read-outs that look alike come from different tables or passages of the source.

Tests used:
[1] = target: T1, AChE (EC 3.1.1.7, Electrophorus electricus) (Electrophorus electricus, UniProt O42275); assay: biochemical
T1 construct: purchased Sigma Aldrich (Steinheim, Germany)
Protocol: (§1) Ellman’s assay was used to assess the inhibitory activity of the newly synthesized compounds towards AChE and BuChE. […] An evaluation of the inhibitory potency towards AChE (EC 3.1.1.7, Electrophorus electricus) and BuChE (EC 3.1.1.8, equine serum) was performed using a modified spectrophotometric Ellman’s method. All necessary reagents for the study were purchased from Sigma Aldrich (Steinheim, Germany). […] The phosphate buffer (pH 8.0) was used as a solvent for reagents. The assay protocol included 14 µL of the tested compound in the nine different concentrations, and 40 µL of substrate acetylthiocholine (ATI) in concentration 1mM or 2mM for AChE and BuChE, respectively. Next, 76 µL of 0.4 mg/mL 5,5′-dithio-bis(2-nitrobenzoic) acid (DTNB) was added to the mixture. In the end, to start the reaction 10 µL of AChE (2U/mL) or BuChE (4U/mL) was added and the solution was mixed and incubated for 10 min. at 37 °C. As a control, instead of the tested compound, we used PBS. […] The experiments were performed independently and in triplicate. Data were expressed as mean ± SD.

[2] = target: T2, BuChE (EC 3.1.1.8, equine serum) (Equus caballus, UniProt P81908); assay: biochemical; type: biochemical
T2 construct: purchased Sigma Aldrich (Steinheim, Germany); host or cells: equine serum
Protocol: as §1

[3] = ORAC-FL antioxidant activity assay; details: Trolox equivalents, mean ± SD; compounds 1–13 µM, tacrine 1–10 µM; pH 7.4
[4] = in vitro; details: human
[5] = target: T3, BuChE (Equus caballus, UniProt P81908); assay: Kinetic characterization of BuChE inhibition (Lineweaver-Burk); type: biochemical, equine; details: Lineweaver-Burk plot; inhibitor 0, 150, 200, 250 nM
T3 construct: purchased Sigma Aldrich (Steinheim, Germany); host or cells: equine serum
Protocol: Lineweaver–Burk plots were prepared to reveal the type of inhibition. The experiments were performed in triplicate.
The protocol of the kinetic study was similar to the previous inhibition study. A phosphate buffer (pH 8.0) was used as the solvent for all reagents. The tested medium consisted of 76 µL DTNB (0.4 mg/mL), 40 µL substrate (ATI) at chosen concentrations (35–350 µM), 10 µL of AChE (2 U/mL) or BuChE (4 U/mL), and 14 µL of the inhibitor. […] For the BuChE kinetic analysis, we used four concentrations of the 3b derivative (0, 150, 200, 250 nM). Changes in absorbance were measured at 412 nm. All experiments were conducted independently and in triplicate. To estimate the type of inhibition, reciprocal plots of 1/V versus 1/[S] were created.

[6] = target: T4, AChE (Electrophorus electricus, UniProt O42275); assay: Kinetic characterization of AChE inhibition (Lineweaver-Burk); type: biochemical; details: Lineweaver-Burk plot; inhibitor 0, 200, 400, 800 nM
T4 construct: purchased Sigma Aldrich (Steinheim, Germany)
Protocol: […]. Lineweaver–Burk plots were prepared to reveal the type of inhibition. The experiments were performed in triplicate.
. The protocol of the kinetic study was similar to the previous inhibition study. A phosphate buffer (pH 8.0) was used as the solvent for all reagents. […]. For the BuChE kinetic analysis, we used four concentrations of the 3b derivative (0, 150, 200, 250 nM). Changes in absorbance were measured at 412 nm. All experiments were conducted independently and in triplicate. […]

[7] = Ellman's method, pH 8.0, 37 °C, mean ± SD of three independent experiments, read-out: AChE IC50 ± SD
[8] = Ellman's method, pH 8.0, 37 °C, mean ± SD of three independent experiments

T2 sequence (P81908 whole entry): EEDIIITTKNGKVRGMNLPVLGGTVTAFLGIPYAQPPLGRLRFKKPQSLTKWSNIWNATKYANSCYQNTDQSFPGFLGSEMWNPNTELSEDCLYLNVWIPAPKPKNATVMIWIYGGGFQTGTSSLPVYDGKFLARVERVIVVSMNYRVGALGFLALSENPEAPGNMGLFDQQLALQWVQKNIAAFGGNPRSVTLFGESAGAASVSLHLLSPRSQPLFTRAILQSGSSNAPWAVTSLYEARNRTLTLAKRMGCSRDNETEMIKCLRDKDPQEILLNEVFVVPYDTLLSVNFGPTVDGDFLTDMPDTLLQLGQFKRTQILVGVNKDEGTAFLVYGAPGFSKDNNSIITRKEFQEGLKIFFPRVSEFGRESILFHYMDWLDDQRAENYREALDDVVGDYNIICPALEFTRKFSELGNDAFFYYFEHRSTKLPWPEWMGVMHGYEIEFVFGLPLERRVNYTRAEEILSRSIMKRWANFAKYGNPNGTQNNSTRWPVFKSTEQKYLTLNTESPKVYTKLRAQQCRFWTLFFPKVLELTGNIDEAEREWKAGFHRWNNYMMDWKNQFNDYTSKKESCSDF
T1 sequence (O42275 24-633): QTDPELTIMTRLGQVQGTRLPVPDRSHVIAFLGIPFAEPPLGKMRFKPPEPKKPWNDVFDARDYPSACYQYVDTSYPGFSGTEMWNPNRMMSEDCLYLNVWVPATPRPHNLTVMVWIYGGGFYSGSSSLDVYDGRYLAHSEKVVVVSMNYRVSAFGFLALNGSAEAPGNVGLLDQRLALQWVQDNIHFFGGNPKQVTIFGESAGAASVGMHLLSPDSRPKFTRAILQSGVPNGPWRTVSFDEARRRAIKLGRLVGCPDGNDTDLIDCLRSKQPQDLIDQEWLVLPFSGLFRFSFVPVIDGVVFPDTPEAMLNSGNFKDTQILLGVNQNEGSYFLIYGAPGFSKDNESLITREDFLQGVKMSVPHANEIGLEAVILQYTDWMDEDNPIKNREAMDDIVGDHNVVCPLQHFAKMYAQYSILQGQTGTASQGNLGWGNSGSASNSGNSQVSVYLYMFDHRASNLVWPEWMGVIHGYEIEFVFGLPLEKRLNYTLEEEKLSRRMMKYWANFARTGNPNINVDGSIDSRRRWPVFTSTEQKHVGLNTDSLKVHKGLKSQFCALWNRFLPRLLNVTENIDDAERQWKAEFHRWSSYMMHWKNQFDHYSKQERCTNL
T3 sequence (P81908 whole entry): as the sequence (P81908 whole entry) above
T4 sequence (O42275 24-633): as the sequence (O42275 24-633) above

c1ccc2c(NCCCCCCCNc3c4c(nc5ccccc35)CCCC4)c3c(nc2c1)CCCC3 [Bistacrine, bistacrine, reference compound]
Selectivity for AChE [1]: 0.56
IC50 ([1]; pH 8, read-out: AChE IC50 ± SD): 405 ± 28.6 nM
Selectivity for BuChE [2]: 1.79
IC50 ([2]; pH 8, read-out: BuChE IC50 ± SD): 226 ± 30.4 nM

Cl.O=C(NCCNc1c2c(nc3ccccc13)CCC2)c1c2ccccc2nc2ccccc12 [Compound 3a, N-[2-({1H,2H,3H-cyclopenta[b]quinolin-9-yl}amino)ethyl]acridine-9-carboxamide hydrochloride]
IC50 [1, 7]: 8620 ± 606 nM
Selectivity for AChE ([1]; IC50(BuChE)/IC50(AChE)): 0.063
IC50 [2, 8]: 540 ± 66.9 nM
Selectivity for BuChE ([2]; IC50(AChE)/IC50(BuChE)): 15.96

Cl.O=C(NCCCNc1c2c(nc3ccccc13)CCC2)c1c2ccccc2nc2ccccc12 [Compound 3b, N-[3-({1H,2H,3H-cyclopenta[b]quinolin-9-yl}amino)propyl]acridine-9-carboxamide hydrochloride]
ORAC (TE) [3]: 0.4614 ± 0.056 TE
IC50 at 24 h [4]: 32000 ± 2050 nM
IC50 [1]: 272 ± 35.1 nM
IC50 [2, 8]: 104 ± 7.63 nM
Type of BuChE inhibition [5]: mixed type of inhibition

Cl.O=C(NCCCCNc1c2c(nc3ccccc13)CCC2)c1c2ccccc2nc2ccccc12 [Compound 3c, N-[4-({1H,2H,3H-cyclopenta[b]quinolin-9-yl}amino)butyl]acridine-9-carboxamide hydrochloride]
IC50 [1, 7]: 273 ± 22.1 nM
Selectivity for AChE ([1]; IC50(BuChE)/IC50(AChE)): 0.73
IC50 [2, 8]: 200 ± 18.1 nM
Selectivity for BuChE ([2]; IC50(AChE)/IC50(BuChE)): 1.36

Cl.O=C(NCCCCCNc1c2c(nc3ccccc13)CCC2)c1c2ccccc2nc2ccccc12 [Compound 3d, N-[5-({1H,2H,3H-cyclopenta[b]quinolin-9-yl}amino)pentyl]acridine-9-carboxamide hydrochloride]
Selectivity for AChE ([1]; IC50(BuChE)/IC50(AChE)): 0.043
IC50 [2, 8]: 173 ± 18.9 nM
Selectivity for BuChE ([2]; IC50(AChE)/IC50(BuChE)): 23.39

Cl.O=C(NCCCCCCNc1c2c(nc3ccccc13)CCC2)c1c2ccccc2nc2ccccc12 [Compound 3e, N-[6-({1H,2H,3H-cyclopenta[b]quinolin-9-yl}amino)hexyl]acridine-9-carboxamide hydrochloride]
IC50 [1, 7]: 395 ± 36.1 nM
Selectivity for AChE ([1]; IC50(BuChE)/IC50(AChE)): 0.49
Selectivity for BuChE ([2]; IC50(AChE)/IC50(BuChE)): 2.02

Cl.O=C(NCCCCCCCNc1c2c(nc3ccccc13)CCC2)c1c2ccccc2nc2ccccc12 [Compound 3f, N-[7-({1H,2H,3H-cyclopenta[b]quinolin-9-yl}amino)heptyl]acridine-9-carboxamide hydrochloride]
ORAC (TE) [3]: 0.3254 ± 0.014 TE
IC50 at 24 h ([4]; human hepatic stellate cells (HSCs)): 49800 ± 4360 nM
IC50 [1, 7]: 113 ± 7.14 nM
Selectivity for AChE ([1]; IC50(BuChE)/IC50(AChE)): 1.79
IC50 [2, 8]: 204 ± 16 nM
Selectivity for BuChE ([2]; IC50(AChE)/IC50(BuChE)): 0.56
Type of AChE inhibition [6]: mixed type of inhibition

Cl.O=C(NCCCCCCCCNc1c2c(nc3ccccc13)CCC2)c1c2ccccc2nc2ccccc12 [Compound 3g, N-[8-({1H,2H,3H-cyclopenta[b]quinolin-9-yl}amino)octyl]acridine-9-carboxamide hydrochloride]
IC50 [1, 7]: 701 ± 67.1 nM
Selectivity for AChE ([1]; IC50(BuChE)/IC50(AChE)): 0.25
IC50 [2, 8]: 178 ± 17 nM
Selectivity for BuChE ([2]; IC50(AChE)/IC50(BuChE)): 3.95

Cl.O=C(NCCCCCCCCCNc1c2c(nc3ccccc13)CCC2)c1c2ccccc2nc2ccccc12 [Compound 3h, N-[9-({1H,2H,3H-cyclopenta[b]quinolin-9-yl}amino)nonyl]acridine-9-carboxamide hydrochloride]
IC50 [1, 7]: 669 ± 83.4 nM
Selectivity for AChE ([1]; IC50(BuChE)/IC50(AChE)): 0.34
Selectivity for BuChE ([2]; IC50(AChE)/IC50(BuChE)): 2.95

Nc1c2c(nc3ccccc13)CCCC2 [Tacrine, tacrine, reference compound]
ORAC (TE) [3]: 0.0132 ± 0.009 TE
